# Test results as given in patent publication US10448639B2, “Fungicidal pyrazoles” (FMC CORPORATION, priority 2009, dated 2019).
# Marks after values point to notes of the source that are not given here.
# How the values were obtained:
# [1] = system: Botrytis cinerea; experiment: Test B: tomato Botrytis, preventive spray on tomato seedlings, visual disease rating; details: for pest or weed control at 200 µg/mL: Botrytis cinerea, in Solanum lycopersicum, 120 h, read-out: Test B rating (% disease control); for Test B rating (% disease control): 100 = 100% disease control
# [2] = system: Erysiphe graminis f sp. tritici; experiment: Test J: wheat powdery mildew, preventive spray on wheat seedlings, visual disease rating; details: for pest or weed control at 200 µg/mL: Blumeria graminis, in Triticum aestivum, 192 h, read-out: Test J rating (% disease control); for Test J rating (% disease control): 100 = 100% disease control
# From the text: (§1) General protocol for preparing test suspensions for Tests A-J: the test compounds were first dissolved in acetone in an amount equal to 3% of the final volume and then suspended at the desired concentration (in ppm) in acetone and purified water (50/50 mix by volume) containing 250 ppm of the surfactant Trem® 014 (polyhydric alcohol esters). The resulting test suspensions were then used in Tests A-J. Spraying a 200 ppm test suspension to the point of run-off on the test plants was the equivalent of a rate of 500 g/ha. Unless otherwise indicated, the rating values indicate a 200 ppm test suspension was used. (An asterisk “*” next to the rating value indicates a 40 ppm test suspension was used.)
# The test suspension was sprayed to the point of run-off on wheat seedlings. The following day the seedlings were inoculated with a spore dust of Erysiphe graminis f sp. tritici, (the causal agent of wheat powdery mildew) and incubated in a growth chamber at 20° C. for 8 days, after which time visual disease ratings were made.
# [3] = system: Septoria tritici; experiment: Test G: wheat leaf blotch, preventive spray on wheat seedlings, visual disease rating; details: for pest or weed control at 200 µg/mL: Zymoseptoria tritici, in Triticum aestivum, 504 h, read-out: Test G rating (% disease control); for Test G rating (% disease control): 100 = 100% disease control
# [4] = system: Puccinia recondita f. sp. tritici; experiment: Test H: wheat leaf rust, curative spray on inoculated wheat seedlings, visual disease rating; details: for pest or weed control at 200 µg/mL: 144 h, read-out: Test H rating (% disease control); for Test H rating (% disease control): 100 = 100% disease control
# [5] = system: Alternaria solani; experiment: Test C: tomato early blight, preventive spray on tomato seedlings, visual disease rating; details: for pest or weed control at 200 µg/mL: Alternaria solani, in Solanum lycopersicum, 168 h, read-out: Test C rating (% disease control); for Test C rating (% disease control): 100 = 100% disease control
# From the text: as §1
# The test suspension was sprayed to the point of run-off on tomato seedlings. The following day the seedlings were inoculated with a spore suspension of Alternaria solani (the causal agent of tomato early blight) and incubated in a saturated atmosphere at 27° C. for 48 h, and then moved to a growth chamber at 20° C. for 5 days, after which time visual disease ratings were made.
# [6] = system: Septoria nodorum; experiment: Test F: Septoria glume blotch, preventive spray on wheat seedlings, visual disease rating; details: for pest or weed control at 200 µg/mL: Parastagonospora nodorum, in Triticum aestivum, 192 h, read-out: Test F rating (% disease control); for Test F rating (% disease control): 100 = 100% disease control
# [7] = system: Puccinia recondita f. sp. tritici; experiment: Test I: wheat leaf rust, preventive spray on wheat seedlings, visual disease rating; details: for pest or weed control at 200 µg/mL: 192 h, read-out: Test I rating (% disease control); for Test I rating (% disease control): 100 = 100% disease control
# [8] = tomato Botrytis, 0 = no control relative to controls
# [9] = wheat powdery mildew, 0 = no control relative to controls
# [10] = wheat leaf blotch, 0 = no control relative to controls
# [11] = wheat leaf rust, curative, 0 = no control relative to controls
# [12] = tomato early blight, 0 = no control relative to controls
# [13] = Septoria glume blotch, 0 = no control relative to controls
# [14] = wheat leaf rust, preventive, 0 = no control relative to controls
# [15] = tomato Botrytis, preventive spray, 0 = no control
# [16] = wheat powdery mildew, preventive spray, 0 = no control
# [17] = wheat leaf blotch, preventive spray, 0 = no control
# [18] = wheat leaf rust, curative spray, 0 = no control
# [19] = tomato early blight, preventive spray, 0 = no control
# [20] = Septoria glume blotch on wheat, preventive spray, 0 = no control
# [21] = wheat leaf rust, preventive spray, 0 = no control
Structure (SMILES),"Test B rating (% disease control) [1, 8]","Test J rating (% disease control) [2, 9]","Test G rating (% disease control) [3, 10]","Test H rating (% disease control) [4, 11]","Test C rating (% disease control) [5, 12]","Test F rating (% disease control) [6, 13]","Test I rating (% disease control) [7, 14]","Test B rating (% disease control) [1, 15]","Test J rating (% disease control) [2, 16]","Test G rating (% disease control) [3, 17]","Test H rating (% disease control) [4, 18]","Test C rating (% disease control) [5, 19]","Test F rating (% disease control) [6, 20]","Test I rating (% disease control) [7, 21]",other results
"Cc1nn(C)c(Nc2c(F)cccc2F)c1-c1ccc(F)cc1Cl [Compound 172, 4-(2-chloro-4-fluorophenyl)-N-(2,6-difluorophenyl)-1,3-dimethyl-1H-pyrazol-5-amine]",–,–,–,–,–,–,–,–,–,–,–,–,–,–,pest or weed control at 200 µg/mL [1]: 100%; pest or weed control at 200 µg/mL [2]: 100%; pest or weed control at 200 µg/mL [3]: 100%; pest or weed control at 200 µg/mL [4]: 0%; pest or weed control at 200 µg/mL [5]: 100%; pest or weed control at 200 µg/mL [6]: 87%; pest or weed control at 200 µg/mL [7]: 99%
COc1cc(Oc2c(-c3c(F)cc(F)cc3F)c(C)nn2C)ccc1Cl [compound 164],49%,97%,99%,15%,57%,0%,9%,–,–,–,–,–,–,–,–
Cc1cc(F)ccc1-c1c(C)nn(C)c1Oc1c(F)cc(C#N)cc1F [compound 97],–,–,–,–,–,–,–,100%,99%,100%,0%,99%,95%,99%,–
COc1ccc(Nc2c(-c3ccc(Cl)cc3Cl)c(C)nn2C)cc1OC [compound 74],–,–,–,–,–,–,–,0%,0%,25%,4%,0%,0%,0%,–
"Cc1nn(C)c(Nc2c(F)cc(F)cc2F)c1-c1ccc(F)cc1Br [Compound 266, 4-(2-bromo-4-fluorophenyl)-1,3-dimethyl-N-(2,4,6-trifluorophenyl)-1H-pyrazol-5-amine]",–,–,–,–,–,–,–,–,–,–,–,–,–,–,pest or weed control at 200 µg/mL [1]: 100%; pest or weed control at 200 µg/mL [2]: 100%; pest or weed control at 200 µg/mL [3]: 100%; pest or weed control at 200 µg/mL [4]: 0%; pest or weed control at 200 µg/mL [5]: 100%; pest or weed control at 200 µg/mL [6]: 98%; pest or weed control at 200 µg/mL [7]: 100%
Cc1nn(C)c(Nc2ccc(F)cc2F)c1-c1cccc(Cl)c1Cl [compound 302],–,–,–,–,–,–,–,–,–,–,–,–,–,–,"Test B rating (% disease control), marked * ([1]; tomato Botrytis, rating marked with asterisk (*), meaning not given): 99* %; Test J rating (% disease control), marked * ([2]; wheat powdery mildew, rating marked with asterisk (*), meaning not given): 97* %; Test G rating (% disease control), marked * ([3]; wheat leaf blotch, rating marked with asterisk (*), meaning not given): 99* %; Test H rating (% disease control), marked * ([4]; wheat leaf rust, curative, rating marked with asterisk (*), meaning not given): 0* %; Test C rating (% disease control), marked * ([5]; tomato early blight, rating marked with asterisk (*), meaning not given): 0* %; Test F rating (% disease control), marked * ([6]; Septoria glume blotch, rating marked with asterisk (*), meaning not given): 0* %; Test I rating (% disease control), marked * ([7]; wheat leaf rust, preventive, rating marked with asterisk (*), meaning not given): 18* %"
COc1ccc(F)c(-c2c(C)nn(C)c2Oc2c(F)cc(C#N)cc2F)c1 [compound 278],99%,100%,99%,0%,0%,0%,82%,–,–,–,–,–,–,–,–
COc1ccc(-c2c(C)nn(C)c2Oc2c(F)cc(C#N)cc2F)c(F)c1 [compound 46],–,–,–,–,–,–,–,99%,99%,100%,37%,100%,99%,100%,–
Cc1nn(C)c(Oc2ccc(Cl)c(F)c2)c1-c1c(F)cc(F)cc1F [compound 129],–,–,–,–,–,–,–,99%,0%,96%,0%,0%,0%,0%,–
Cc1nn(C)c(Oc2c(F)cc(C#N)cc2F)c1-c1c(F)cc(F)cc1F [compound 31],–,–,–,–,–,–,–,–,–,–,–,–,–,–,"Test B rating (% disease control), value marked * ([1]; tomato Botrytis, preventive spray, rating marked with asterisk (different test condition, key not given)): 99* %; Test J rating (% disease control), value marked * ([2]; wheat powdery mildew, preventive spray, rating marked with asterisk (different test condition, key not given)): 60* %; Test G rating (% disease control), value marked * ([3]; wheat leaf blotch, preventive spray, rating marked with asterisk (different test condition, key not given)): 47* %; Test H rating (% disease control), value marked * ([4]; wheat leaf rust, curative spray, rating marked with asterisk (different test condition, key not given)): 15* %; Test C rating (% disease control), value marked * ([5]; tomato early blight, preventive spray, rating marked with asterisk (different test condition, key not given)): 98* %; Test F rating (% disease control), value marked * ([6]; Septoria glume blotch, preventive spray, rating marked with asterisk (different test condition, key not given)): 0* %; Test I rating (% disease control), value marked * ([7]; wheat leaf rust, preventive spray, rating marked with asterisk (different test condition, key not given)): 79* %"
Cc1nn(C)c(Nc2cccc(Cl)c2)c1-c1c(F)cc(C#N)cc1F [compound 115],–,–,–,–,–,–,–,99%,0%,100%,0%,0%,0%,91%,–
Cc1ccc(-c2c(C)nn(C)c2Nc2c(F)cc(F)cc2F)cc1 [compound 79],–,–,–,–,–,–,–,99%,0%,99%,0%,0%,0%,55%,–
Cc1nn(C)c(Nc2ccc(Cl)cc2)c1-c1ccc(F)cc1F [compound 195],100%,97%,100%,0%,97%,60%,98%,–,–,–,–,–,–,–,–
Cc1cc(Oc2c(-c3c(F)cc(F)cc3F)c(C)nn2C)ccc1Br [compound 165],0%,99%,52%,8%,0%,0%,0%,–,–,–,–,–,–,–,–
Cc1nn(C)c(Nc2cc(F)ccc2F)c1-c1ccc(F)cc1F [compound 226],99%,100%,96%,28%,0%,0%,91%,–,–,–,–,–,–,–,–
